Data as given in PubChem BioAssay (NCI).
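Tested at 5 concentrations; 48 h exposure; 96-well plates; endpoints linearly interpolated, else capped at highest concentration. TGI is the concentration that stops growth completely.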

Legend:
Assay in all cases: NCI anticancer screen, dose series, 48 h
[1] = tested on: SF-295 CNS
[2] = tested on: K-562 leukemia
[3] = tested on: A498 renal
[4] = tested on: SK-MEL-5 melanoma
[5] = tested on: NCI-H23 lung
[6] = tested on: HOP-62 NSCLC
[7] = tested on: MDA-MB-435
[8] = tested on: MDA-MB-231 breast
[9] = tested on: MDA-N
[10] = tested on: SK-OV-3 ovarian
[11] = tested on: T-47D breast
[12] = tested on: RPMI-8226 leukemia
[13] = tested on: HCT-15 colon
[14] = tested on: HT29 colon
[15] = tested on: M14 melanoma
[16] = tested on: UACC-257 melanoma
[17] = tested on: MCF7 breast
[18] = tested on: CAKI-1 renal
[19] = tested on: UO-31 renal

Compound	TGI [1] [µM]	TGI [2] [µM]	TGI [3] [µM]	TGI [4] [µM]	TGI [5] [µM]	TGI [6] [µM]	TGI [7] [µM]	TGI [8] [µM]	TGI [9] [µM]	TGI [10] [µM]	TGI [11] [µM]	TGI [12] [µM]	TGI [13] [µM]	TGI [14] [µM]	TGI [15] [µM]	TGI [16] [µM]	TGI [17] [µM]	TGI [18] [µM]	TGI [19] [µM]
CNC(=O)Nc1cc2c3c(c1)CCCN3CCC2	> 10	> 10	> 10	> 10	> 10	> 10	> 10	> 10	> 10	> 10	> 10	> 10	> 10	> 10	> 10	> 10	> 10	> 10	–
COC(=O)c1ccccc1C1CN=NC12Cc1c(C)cc(C)cc1C2=O (centres undefined)	> 100	> 100	> 100	> 100	> 100	> 100	> 100	> 100	> 100	> 100	> 100	–	> 100	> 100	> 100	> 100	> 100	> 100	> 100
CO/C(=N/N1CC1C(F)(F)F)c1ccncc1 (centres undefined)	> 100	> 100	> 100	> 100	> 100	> 100	> 100	> 100	> 100	> 100	> 100	> 100	> 100	> 100	> 100	–	> 100	> 100	> 100
CC(C)=CCNc1ncnc2c1ncn2CCC(=O)OC(C)(C)C	> 100	> 100	> 100	70	> 100	> 100	> 100	> 100	> 100	> 100	> 100	> 100	> 100	> 100	> 100	–	> 100	–	> 100
O=C(OCc1ccccc1)N1CCNCCNCC1	> 100	> 100	> 100	> 100	> 100	> 100	> 100	> 100	> 100	–	> 100	> 100	> 100	> 100	> 100	> 100	> 100	> 100	> 100
COc1ccc(C2Oc3c(cccc3OC)C=C2[N+](=O)[O-])cc1OC (centres undefined)	71.7	> 100	–	16.1	22.3	> 100	8.3	> 100	> 100	17.9	> 100	> 100	24	> 100	19.6	–	> 100	38.3	29.2
Cc1c(O)c(OC2OC(CO)C(O)C(O)C2O)cc2c1CC[C@@H]1C2(C)C(=O)C[C@]2(C)[C@@H]([C@@](C)(O)C(O)/C=C/C(C)(C)O)[C@H](O)C[C@@]12C (some centres undefined)	> 100	> 100	> 100	> 100	> 100	> 100	> 100	> 100	> 100	> 100	> 100	–	> 100	> 100	> 100	> 100	> 100	> 100	> 100
CC(=O)C1(c2ccccc2)CCN(Cn2sc3nc(C)cc(C)c3c2=O)CC1	> 100	> 100	> 100	> 100	41.6	> 100	59.8	> 100	41	> 100	> 100	> 100	72.8	36.9	71.6	–	> 100	> 100	31.8
COc1ccc(-c2oc3c(CC(=O)O)cccc3c(=O)c2OC)cc1	> 100	> 100	> 100	> 100	> 100	> 100	> 100	> 100	> 100	> 100	> 100	–	–	> 100	> 100	> 100	> 100	42.6	53.4
NC(=O)/N=C(\N)NC(=O)c1ccccc1	> 100	> 100	> 100	> 100	> 100	> 100	> 100	> 100	> 100	–	> 100	–	> 100	> 100	> 100	> 100	–	> 100	> 100
COC(=O)/C=C\c1ccc2c(c1)CC1(C2)Cc2ccc(/C=C/C(=O)OC)cc2C1 (centres undefined)	> 31.6	> 31.6	–	> 31.6	> 31.6	25.3	> 31.6	> 31.6	> 31.6	> 31.6	> 31.6	> 31.6	> 31.6	> 31.6	> 31.6	> 31.6	> 31.6	> 100	> 31.6
O=C(Sc1c(-c2ccccc2)c(=O)n(-c2ccccc2)c(=S)n1-c1ccccc1)c1ccc(Cl)cc1	> 100	> 100	> 100	–	> 100	> 100	> 100	> 100	> 100	> 100	> 100	–	> 100	> 100	> 100	> 100	> 100	> 100	–
O=C1c2ccccc2C(=O)c2c(OCC3CO3)ccc(OCC3CO3)c21 (centres undefined)	11.8	5.96	> 47.5	15.5	–	7.09	7.61	> 34	23.8	36.2	24.1	19.8	4.5	15.1	4.78	19.4	2.59	10.6	10.4
O=c1c2cccnc2[nH]c2ccc3scnc3c12	> 10	–	> 10	> 10	> 10	> 10	> 10	> 10	> 10	> 10	> 10	> 10	> 10	> 10	> 10	> 10	> 10	> 10	–
